{"source": "patent US11241483B2", "about": "“Methods of treating mild brain injury” (The Regents of the University of California, priority 2014, dated 2022)", "key": {"[1]": {"tested_on": "oxidative burst in inflammatory cells (reactive oxygen species)", "experiment": "Oxidative burst (ROS, DHR 123 flow cytometry) in leukocytes isolated from brain tissue after mild brain injury (controlled cortical impact)", "type": "in vivo, C57/B6 mice", "description": "FIG. 1 depicts principle of assaying oxidative burst within inflammatory cells. Dihydrorhodamine 123 (DHR 123) diffuses across the cell membrane. When it encounters reactive oxygen species (ROS), DHR 123 is oxidized and fluoresces green. The fluorescence is then measured and presented as arbitrary fluorescence unit (AFU), wherein higher intensity means greater oxidative burst and, therefore greater concentration of amount of ROS (See Chen, et al., Measurement of oxidative burst in neutrophils,” Methods Mol Biol., 844: 115-124 (2012); which is incorporated herein by reference in its entirety).\nGhrelin administration reduces oxidative burst in inflammatory cells following mBI. Since no well-accepted animal model exists for concussions, a very small cerebral lesion that closely mimics mBI is used as a model of mBI. […] Anesthesia is assessed by paw pinch reflex. […]\nAnimals are separated into three treatment groups: 1) Sham, 2) mBI, and 3) mBI plus ghrelin. […] The fluorescence is then measured and presented as arbitrary fluorescence unit (AFU), wherein higher intensity means greater oxidative burst and, therefore greater concentration or amount of ROS. […] Oxidative burst, which is a marker for ROS, can be measured by flow cytometry (e.g., FL1 channel with 488-nm laser)."}, "[2]": {"tested_on": "blood brain barrier (BBB) vascular permeability; Aquaporin 4 (AQP-4)", "experiment": "Ghrelin treatment of TBI animals (background statement): BBB vascular permeability and Aquaporin 4 expression", "type": "in vivo", "settings": "following TBI"}}, "note": "Entries after “also recorded” stand apart in the source; their conditions may differ. Ends that are not written are not given here.", "data": [{"substance": "Gly-Ser-Ser-Phe-Leu-Ser-Pro-Glu-His-Gln-Arg-Val-Gln-Gln-Arg-Lys-Glu-Ser-Lys-Lys-Pro-Pro-Ala-Lys-Leu-Gln-Pro-Arg (SEQ ID NO. 1) (GSSFLSPEHQRVQQRKESKKPPAKLQPR; not fully specified (residues 2, 3); printed as Gly-Ser-Ser-Phe-Leu-Ser-Pro-Glu-His-Gln-Arg-Val-Gln-Gln-Arg-Lys-Glu-Ser-Lys-Lys-Pro-Pro-Ala-Lys-Leu-Gln-Pro-Arg; also: octanoyl on Ser2 and/or Ser3 stated only as an option; listed as Homo sapiens) [ghrelin, 28-amino acid peptide, neuroendocrine hormone, endogenous ligand for growth hormone secretagogue receptor; obtainable from Phoenix Pharmaceuticals]", "values": [{"measurement": "Oxidative burst of ipsilateral whole brain following mild BI (mean fluorescence intensity)", "setting": "[1]; mild BI+ghrelin (2 doses), subcutaneous 10 μg following mBI and 10 μg 1 hour after, vs 7963 AFU±2900 mild BI and 4624 AFU±1858 sham, n=5, p=0.048", "value": 3257, "unit": "AFU"}, {"measurement": "Oxidative burst in inflammatory cells following mBI (FIG. 2, peak shift)", "setting": "[1]; subcutaneous ghrelin vs untreated mBI, n=3 animals in each group", "value": "reduced the oxidative burst; also recorded: lower oxidative burst"}, {"measurement": "Post-TBI up-regulation of Aquaporin 4 (AQP-4)", "setting": "[2]", "value": "prevents post-TBI up-regulation of Aquaporin 4"}]}]}
